From patent US20140271667A1, “Methods and Compositions for Neoadjuvant Therapy” (The Wistar Institute of Anatomy and Biology, priority 2013, published 2014)
Entries after “also recorded” stand apart in the source; their conditions may differ.

How the values were obtained:
Akt or ERK = experiment: Western blotting, Akt or ERK phosphorylation; type: cell-based, human; conditions: Gamitrinib 5 μM
Procedure: (§1) Protein lysates were prepared in RIPA buffer containing 150 mM NaCl, 1.0% Triton X-100, 0.5% sodium deoxycholate, 0.1% SDS, 50 mM Tris, pH 8.0, in the presence of EDTA-free protease inhibitor cocktail (Roche) and phosphatase inhibitor cocktail 2 and 3 (Sigma Aldrich). Equal amounts of protein lysates were separated by SDS gel electrophoresis, transferred to PVDF membranes and incubated with primary antibodies of various specificities. Protein bands were detected by chemiluminescence, as described (21).

Src = experiment: Western blotting, Src phosphorylation; type: cell-based, human; conditions: Gamitrinib 5 μM
Procedure: as §1

FIP200 = FIP200 phosphoisotypes, phosphate-affinity SDS gel mobility shift; type: cell-based, human; conditions: PC3; Gamitrinib 5 μM
Procedure: Analysis of phosphoisotypes was carried out by standard phosphate-affinity SDS gel electrophoresis, using a mobility shift protocol (56). Briefly, proteins were separated by electrophoresis on 3% polyacrylamide/0.5% SeaKem Gold Agarose (Lonza) gels containing the dinuclear metal complex Mn2+-Phos-tag (Acrylamide-pendant Phos-tag, Wako Chemicals). After removal of Mn2+ by washing the gels in blotting buffer containing 1 mM EDTA, proteins were transferred to PVDF membranes and detected by Western blotting using antibodies to FIP200 or pan-phosphorylated Ser residues.

[1] = test system: normal human MRC-5 lung fibroblasts; experiment: Wound closure assay, normal fibroblasts; type: cell-based; conditions: Gamitrinib 5-10 μM, 16 or 24 h
Procedure: For cell migration experiments using a wound closure assay, confluent monolayers of MRC-5 cells were incubated with vehicle or Gamitrinib (5-10 μM), and wounded using a 10 μl pipette tip. Three micrographs/well were obtained at time=0, 16 and 24 h after wounding, and the percentage of wound closure was normalized to the maximum initial area for each well. For analysis of tumor cell invasion in 3D organotypic spheroids, tumor cells (5×10^4) were seeded onto 96-well plates coated with 1.5% agar (Difco Noble Agar) in PBS, pH 7.4. Spheroids were allowed to form over a 72 h period and then embedded in […] of bovine collagen type I (Organogenesis) in 24-well plates. Spheroids were overlaid with 1 ml of growth medium, treated with various concentrations of Gamitrinib for 72 h, and analyzed for changes in maximum invasion distance and invasion area. Quantification of live vs. dead cells under the various conditions tested was performed by staining the spheroids with calcein-AM (live, bright cluster) and Topro-3 (dead, dark spots) (Invitrogen) for 2 h. Samples were imaged using a Prairie Ultima II 2-photon microscope (Prairie Technologies, Inc, Middleton, Wis.), and stacks of 100 slices were generated in 2 channels. 3-D reconstruction of the labeled spheroids and analysis of cell staining was carried out using ImagePro Plus 3D software (Media Cybernetics, Silver Spring Md.).

[2] = test system: Focal Adhesion Kinase (FAK); experiment: Western blotting, FAK phosphorylation; type: cell-based, human; conditions: tumor cells (PC3); Gamitrinib 5 μM, CCCP 12.5 μM, rapamycin 0.1 μM
Procedure: as §1

PC3 cells = experiment: Cell proliferation by direct cell counting; type: cell-based, human; conditions: vs vehicle, Gamitrinib 5 μM, CCCP 12.5 μM, 2-DG 25 mM
Procedure: Tumor cells were plated onto 96-well plates at 3.7×10^3/well and treated with vehicle or Gamitrinib (5 μM). After 24 h, cell viability was assessed with a 3 (4,5-dimethyl-thyazoyl-2-yl)2,5 diphenyltetrazolium bromide (MTT) colorimetric assay (24), or, alternatively, by Trypan blue exclusion and light microscopy. Data were background-subtracted relative to vehicle-treated cultures. In some experiments, tumor cell proliferation was assessed by direct cell counting and light microscopy.

Rac1 and Cdc42 = experiment: Rac1 and Cdc42-GTP pull-down assays; type: cell-based, human; conditions: serum-starved A549 cells stimulated with EGF or FBS; Gamitrinib 5 μM
Procedure: The activation of Rho family small GTPases, Rac1 or Cdc42 was examined in pull-down assays using the p21-binding domain (PBD, amino acids 70-117) of the p21-activated kinase-1 (Pak1). Briefly, a pGEX TK-Pak1 PBD cDNA (Addgene, Cat. no. #12217) was purified, transformed into BL21 E. coli competent cells (Stratagene), and expressed as recombinant GST fusion protein after induction with 1 mM IPTG for 4 h at 34° C. Cells were suspended in PBS, pH 7.2, in the presence of protease inhibitors (SIGMA), and broken by sonication in 1% Triton X-100 for 30 min at 4° C. Soluble proteins were isolated by chromatography on glutathione Sepharose 4B (GS4B, GE Healthcare), eluted in 3 consecutive steps in buffer containing 10 mM GSH, 50 mM Tris HCl, pH 8.0, and further desalted using Amicon Ultra 4/10K columns (Millipore), for a total of 3 buffer changes to PBS, pH 7.2. The protein was diluted in glycerol, quantified by absorbance at 280 nm, and stored at −80° C. until use. The activity of each batch of recombinant protein was assessed by incubating aliquots of the cell lysate with non-hydrolyzable GTPγS at 0.1 mM (maximum binding) or 1 mM GDP (negative control) in low Mg2+ buffer at 30° C. followed by pull-down (54). […]

Q: How did the “Akt or ERK phosphorylation” value (Akt or ERK) turn out when Gamitrinib was run?
A: not affected

Q: And the “Src phosphorylation on Tyr416” value (Src)?
A: inhibited the phosphorylation

Q: And the “FIP200 gel mobility (phosphorylation)” value (FIP200)?
A: gel mobility retardation, suggestive of increased phosphorylation

Q: And the “migration of normal human fibroblasts in wound closure assay” value [1]?
A: did not affect migration

Q: What about the “FAK phosphorylation on Tyr397 and Tyr925” value [2] of the same substance?
A: loss of phosphorylation

Q: And the tumor cell proliferation (PC3 cells)?
A: did not reduce tumor cell proliferation; also recorded: did not affect cell proliferation

Q: What about the “activation of Rac1 and Cdc42 (GTP-bound)” value (Rac1 and Cdc42) of the same substance?
A: impaired
